Read-outs that look alike come from different tables or passages of the source.
What was measured:
Format in all cases: physicochemical
[1] = Dissolution test against cold water at 10° C.; conditions: for Time required for dissolution, No. 1 / Time required for dissolution, No. 2 / Time required for dissolution, No. 3 / Time required for dissolution, No. 4 / Time required for dissolution, No. 5 / Time required for dissolution, Average: 20 ml water 10° C., about 300 rpm, 0.5 g trehalose or 0.2 g maltose; for Time required for dissolution, Average: average of 5; for Dissolution in cold water in comparison with controls: cold water 10° C.
Procedure: A dissolution test against cold water at 10° C. was carried out using the porous anhydrous crystalline trehalose prepared by treating at 70° C. for 60 min in Example 1, the porous anhydrous crystalline maltose prepared by the method in Example 3, and the porous hydrous crystalline maltose prepared by the method in Example 5, as samples. The results were compared with those of the controls, anhydrous crystalline trehalose, hydrous crystalline trehalose, and hydrous crystalline maltose.
Twenty milliliters of 10° C.-cold water was placed in a test tube with an internal diameter of 18 mm, and then stirred using a stirring bar. A crystalline saccharide sample was put into the test tube, and the time required for the complete dissolution (for the disappearance of precipitate particles) was measured. The amount of samples was set to be 0.5 g in the case of trehalose and to be 0.2 g in the case of maltose, and the stirring rate was set to be about 300 rpm in any case. The measurement of time for dissolution under the above conditions was carried out 5-times at each sample.

[2] = Pore size distribution by the mercury filling method; conditions: for Median pore diameter: control maltose values are from space between particles, not pores
[3] = Specific surface area by nitrogen adsorption isotherms (BET); conditions: for Specific surface area: nitrogen adsorption isotherms, BET
Procedure: Specific surface area of the porous anhydrous crystalline trehalose was measured by the nitrogen adsorption isotherms using “MODEL ASAP-2400”, a specific surface area/pore size distribution analyzer commercialized by Micromeritics, Georgia, USA. […] The result was analyzed by the BET (Brunnauer, Emmet, and Teller) method. The commercial anhydrous crystalline trehalose, a reagent grade, commercialized by Hayashibara Biochemical Laboratories Inc., Okayama, Japan, was used as a control. […] Further, those pore size distribution charts are in FIG. 19. […] The results of the analysis on the specific surface area and the pore size distribution are summarized in Table 7, and the pore size distribution chart was in FIG. 24. As a control, “MALTOSE OM”, a hydrous crystalline maltose product with maltose purity of 98% or higher, produced by Hayashibara Co., Ltd., Okayama, Japan, was used.

[4] = Oil-keeping ability with salad oil; parameters: key to Oil-keeping ability: (5 g salad oil / g saccharide added at endpoint) x 100; conditions: for Oil-keeping ability: (5 g salad oil / amount of added saccharide) x 100
Procedure: The oil-keeping ability of each crystalline saccharide was measured using the porous anhydrous crystalline trehalose prepared by treating at 70° C. for 60 min in Example 1, the control hydrous crystalline trehalose, and the control anhydrous crystalline trehalose as crystalline trehalose samples; and the porous anhydrous crystalline maltose prepared by the method in Example 3, the control hydrous crystalline β-maltose, and the control anhydrous crystalline α-maltose, and the control anhydrous crystalline β-maltose as crystalline maltose samples, and the results were compared.
The measurement of the oil-keeping ability of the crystalline saccharide was carried out according to the method disclosed in Japanese Patent Kokai No. 31,650/84. Five grams of “NISSHIN SALAD OIL”, a salad oil commercialized by Nisshin OiliO Group, Ltd., Tokyo, Japan, was placed in a 50-ml plastic container, and then gradually admixed with each powdery crystalline saccharide with stirring. […] When the amount of the mixed saccharide is further increased, the agglomerate increase in solidity and then loosen. The point that the agglomerate is loosened is estimated to be the endpoint and the oil-keeping ability was calculated using the following formula. Oil-Keeping Ability =(The amount of salad oil(5 g)/the amount of added PCS*)×100 *: Powdery crystalline saccharide tm Formula 1

[5] = Crystal moisture content (Karl Fischer) on moisture absorption and drying
Procedure: Hydrous crystalline saccharides were prepared from the respective porous anhydrous crystalline saccharide using the porous anhydrous crystalline trehalose, obtained by treating at 70° C. for 60 min in Example 1, and the porous anhydrous crystalline maltose, obtained by treating at 70° C. for 480 min in Example 3, as materials. About 50 g of the porous anhydrous crystalline saccharide and about 150 ml of deionized water were placed in respective container. Then, the both open containers were placed in the same closed vessel and leaved to stand at 27° C. for two days. By the treatment, the anhydrous crystalline saccharide was allowed to absorb moisture and converted into hydrous crystal. The resulting hydrous crystal was dried in a drying machine at 50° C. for one hour to remove excess moisture. The moisture contents of the porous anhydrous crystalline trehalose and the porous anhydrous crystalline maltose before and after the treatment to absorb moisture and after drying are in Table 6. The moisture content of crystals was measured by the conventional Karl Fischer's method.

[6] = Flax seed oil powder: keeping of powdery form; conditions: 1 part flax seed oil + 10 parts saccharide as base; listed as control hydrous crystalline trehalose
Procedure: One part by weight of flax seed oil was admixed with 10 parts by weight of the porous anhydrous crystalline trehalose, prepared by treating at 70° C. for 60 min in Example 1, and then the mixture was kneaded to make into a powdery product. In the same manner, powdery products were prepared by using “TREHA®”, hydrous crystalline trehalose commercialized by Hayashibara Shoji Inc., Okayama, Japan, and anhydrous crystalline trehalose, prepared from hydrous crystalline trehalose by drying in vacuo at a high temperature according to the conventional method, as controls. […] The flaxseed oil powder can be preferably used as a supplement.

[7] = listed as Porous hydrous crystalline β-maltose (Present invention)
[8] = listed as porous hydrous crystalline maltose
[9] = listed as Porous anhydrous crystalline β-maltose (Present invention)
[10] = listed as porous anhydrous crystalline maltose

SMILES	Time required for dissolution, No. 1 [1] [s]	Time required for dissolution, No. 2 [1] [s]	Time required for dissolution, No. 3 [1] [s]	Time required for dissolution, No. 4 [1] [s]	Time required for dissolution, No. 5 [1] [s]	Time required for dissolution, Average [1] [s]	Intrusion volume [2]	Median pore diameter [2] [μm]	Specific surface area [3] [m^2/g]	Oil-keeping ability [4]	also measured
OC[C@H]1O[C@H](O[C@H]2[C@H](O)[C@@H](O)C(O)O[C@@H]2CO)[C@H](O)[C@@H](O)[C@@H]1O (mixture of isomers) [Hydrous crystalline β-maltose (Control), maltose]	118	113	114	119	116	116	(No pore)	11.20	0.46	–	Specific surface area ([3]; listed as control hydrous crystalline β-maltose): 0.46 m^2/g; Specific surface area ([3]; listed as hydrous crystalline β-maltose): 0.46 m^2/g; Oil-keeping ability ([4]; listed as Hydrous crystalline maltose (Control)): 45.5
OC[C@H]1O[C@H](O[C@H]2[C@H](O)[C@@H](O)C(O)O[C@@H]2CO)[C@H](O)[C@@H](O)[C@@H]1O (mixture of isomers) [Anhydrous crystalline α-maltose (Control)] [reference compound]	37	35	39	38	36	37	(No pore)	13.00	0.48	41.7	Specific surface area ([3]; listed as anhydrous crystalline α-maltose): 0.48 m^2/g
OC[C@H]1O[C@H](O[C@H]2O[C@H](CO)[C@@H](O)[C@H](O)[C@H]2O)[C@H](O)[C@@H](O)[C@@H]1O [Porous anhydrous crystalline trehalose (treated at 50° C. fo] [α-D-glucosyl α-D-glucoside]	–	–	–	–	–	–	0.22 mL/g	0.21	3.306	–	Mode pore diameter [2]: 0.29 μm; Remarks (pores) [2]: Having clear pores
OC[C@H]1O[C@H](O[C@H]2[C@H](O)[C@@H](O)C(O)O[C@@H]2CO)[C@H](O)[C@@H](O)[C@@H]1O (mixture of isomers) [Porous hydrous crystalline maltose, maltose]	–	–	–	–	–	–	0.77 mL/g	2.82	1.39	–	Time required for dissolution, No. 1 [1, 7]: 67 s; Time required for dissolution, No. 2 [1, 7]: 66 s; Time required for dissolution, No. 3 [1, 7]: 64 s; Time required for dissolution, No. 4 [1, 7]: 68 s; Time required for dissolution, No. 5 [1, 7]: 65 s; Time required for dissolution, Average [1, 7]: 66 s; Dissolution in cold water in comparison with controls [1]: rapidly dissolved in cold water; Pore diameter of clear peak in pore size distribution chart [2]: less than 5 μm; Intrusion volume [2, 8]: 0.77 mL/g; Specific surface area relative to control crystalline saccharide ([3]; compared with control(s)): about 3 folds; Specific surface area [3, 8]: 1.39 m^2/g
OC[C@H]1O[C@H](O[C@H]2[C@H](O)[C@@H](O)C(O)O[C@@H]2CO)[C@H](O)[C@@H](O)[C@@H]1O (mixture of isomers) [Anhydrous crystalline β-maltose (Control)] [reference compound]	–	–	–	–	–	–	(No pore)	14.70	0.82	40	Specific surface area ([3]; listed as anhydrous crystalline β-maltose): 0.82 m^2/g
OC[C@H]1O[C@H](O[C@H]2[C@H](O)[C@@H](O)C(O)O[C@@H]2CO)[C@H](O)[C@@H](O)[C@@H]1O (mixture of isomers) [Porous anhydrous crystalline maltose, maltose]	–	–	–	–	–	–	1.05 mL/g	1.26	3.39	–	Time required for dissolution, No. 1 [1, 9]: 30 s; Time required for dissolution, No. 2 [1, 9]: 31 s; Time required for dissolution, No. 3 [1, 9]: 33 s; Time required for dissolution, No. 4 [1, 9]: 29 s; Time required for dissolution, No. 5 [1, 9]: 32 s; Time required for dissolution, Average [1, 9]: 31 s; Dissolution in cold water in comparison with controls [1]: rapidly dissolved in cold water; Pore diameter of clear peak in pore size distribution chart [2]: less than 5 μm; Intrusion volume [2, 10]: 1.05 mL/g; Crystal moisture content, after drying ([5]; after moisture absorption and drying at 50° C. for one hour): 5.14 %, w/w; Crystal moisture content, before treatment ([5]; before moisture absorption): 0.32 %, w/w; Crystal moisture content, after treatment ([5]; closed vessel with water, 27° C., two days): 7.35 %, w/w; Specific surface area [3, 10]: 3.39 m^2/g; Oil-keeping ability [4, 9]: 143; Oil-keeping ability ([4]; listed as porous anhydrous crystalline β-maltose): 143; Oil-keeping ability relative to control ([4]; compared with control crystalline saccharide): about 3 folds
OC[C@H]1O[C@H](O[C@H]2O[C@H](CO)[C@@H](O)[C@H](O)[C@H]2O)[C@H](O)[C@@H](O)[C@@H]1O [Hydrous crystalline trehalose (Control), α-D-glucosyl α-D-glucoside]	106	130	121	135	123	123	–	–	–	38.5	Powdery form of flax seed oil powder [6]: could not keep powdery forms; Oil-keeping ability ([4]; listed as control hydrous crystalline trehalose): 38.5

Source: patent US8188268B2, “Porous crystalline saccharide, its preparation and uses” (Kabushiki Kaisha Hayashibara Seibutsu Kagaku Kenkyujo, priority 2005, dated 2012)
